Data on 32 compounds can be found in ChEMBL document CHEMBL1143137, “Synthesis, in vitro and in vivo activity of thiamine antagonist transketolase inhibitors” (Bioorg Med Chem Lett, 2008).

Test [1] concerns the target T1, Transketolase (Homo sapiens, UniProt P29401).
T1 sequence (P29401 whole entry): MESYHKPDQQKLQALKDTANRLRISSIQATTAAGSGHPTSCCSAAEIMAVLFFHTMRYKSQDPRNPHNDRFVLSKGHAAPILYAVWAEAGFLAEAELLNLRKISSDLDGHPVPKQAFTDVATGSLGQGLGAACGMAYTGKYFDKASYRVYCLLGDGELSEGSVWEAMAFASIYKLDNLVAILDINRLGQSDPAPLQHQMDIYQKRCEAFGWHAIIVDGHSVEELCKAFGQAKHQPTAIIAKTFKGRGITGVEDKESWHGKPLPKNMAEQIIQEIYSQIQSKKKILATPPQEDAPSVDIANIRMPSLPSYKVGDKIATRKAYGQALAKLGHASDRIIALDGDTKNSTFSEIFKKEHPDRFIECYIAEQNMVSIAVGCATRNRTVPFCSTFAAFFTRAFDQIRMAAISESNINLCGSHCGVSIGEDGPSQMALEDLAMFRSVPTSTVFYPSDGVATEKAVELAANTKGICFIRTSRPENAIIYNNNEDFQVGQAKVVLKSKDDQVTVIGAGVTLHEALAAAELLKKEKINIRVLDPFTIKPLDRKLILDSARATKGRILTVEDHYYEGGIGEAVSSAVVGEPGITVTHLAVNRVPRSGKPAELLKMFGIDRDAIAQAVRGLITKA
The test can be described thus: Inhibition of human transketolase in HCT116 cells. Type of test: cell-based, HCT-116.

The target of test [2] is T1, Transketolase. The test can be described thus: Inhibition of transketolase by TPPK/apo-TK coupled assay.
Test [3] addresses T1, Transketolase. Description: Binding affinity to apo-transketolase.
Test [4] relates to Mus musculus. The test can be described thus: Inhibition of transketolase activity in human HCT116 cells xenografted mouse at 100 mg/kg, iv bid for 2 weeks. Type of test: functional, organism-based. The conditions noted are these: HCT-116. Details: dose 100 mg/kg. A general note: In xenograft studies the graft and the host belong to different species.
The subject of test [5] is Mus musculus. The test can be described thus: Inhibition of G6PD activity in human HCT116 cells xenografted mouse at 100 mg/kg, iv bid for 2 weeks. Type of test: functional, organism-based. On the set-up: dose 100 mg/kg. The conditions noted are these: HCT-116.
Test [6] has as its system Mus musculus. The test can be described thus: Inhibition of alphaKGDH activity in human HCT116 cells xenografted mouse at 100 mg/kg, iv bid for 2 weeks. Type of test: functional, organism-based. On the set-up: dose 100 mg/kg. The conditions noted are these: HCT-116.
Another test deals with HCT-116. Description: Antitumor activity against human HCT116 cells xenografted mouse assessed as reduction in tumor size at 100 mg/kg, iv bid for 2 weeks. Type of test: functional, organism-based. On the set-up: dose 100 mg/kg.

The source made the active and inactive calls. The rule behind the calls is not given here.

In turn, `CCc1ccc(C[n+]2csc(CCO)c2C)c(N)n1` returned an EC50 on Transketolase [1] of 8.7 nM. The same compound showed a dissociation constant (Kd) on Transketolase [2] of 10 nM.

At Transketolase [1], `Cc1ccc(C[n+]2csc(C(O)CO)c2C)c(N)n1` (configuration not stated) displayed an EC50 of 300 nM. On Transketolase [2], the Kd is 53 nM.

For the compound `Cc1c(CCO)sc[n+]1Cc1ccc(C(=O)c2ccccc2C(=O)O)nc1`, a half-maximal effect at Transketolase [1] (EC50) was put at 3100 nM. Besides, the affinity at Transketolase [2], expressed as Kd, was 140 nM.

Turning to `Cc1ccc(C[n+]2csc(CCO)c2CO)c(N)n1`, the response on Transketolase [1] was half-maximal at 570 nM (EC50). On Transketolase [2], the affinity, expressed as Kd, was 25 nM.

`Cc1c(CCO)sc[n+]1Cc1c(C(F)(F)F)cc(C(F)(F)F)nc1N` showed a Kd at Transketolase [2] of 1460 nM.

Turning to `Cc1ccc(C[n+]2c(-c3ccc4c(c3)OCO4)sc(CCO)c2C)c(N)n1`, the EC50 at Transketolase [1] was determined as 25000 nM.

On Transketolase [1], `CCc1sc(CCO)c(C)[n+]1Cc1ccc(C)nc1N` displayed an EC50 of 21 nM. At Transketolase [2], this compound displayed a Kd of 75 nM.

Compound `Cc1cncc(C[n+]2csc(CCO)c2C)c1` yielded an EC50 on Transketolase [1] of 38000 nM. The compound also displayed a Kd on Transketolase [2] of 220 nM.

Consider `Cc1ccc(C[n+]2csc(CCO)c2)c(N)n1`, for which the Kd at Transketolase [2] was determined as 29 nM.

`Cc1ccc(C[n+]2c(Cc3cccnc3)sc(CCO)c2C)c(N)n1`: on Transketolase [1], the EC50 was 840 nM.

As for `COC(=O)CCc1sc[n+](Cc2ccc(C)nc2N)c1C`, the EC50 at Transketolase [1] is 2300 nM.

Take `Cc1ccc(C[n+]2csc([C@H](O)CO)c2C)c(N)n1`: the midpoint of the response on Transketolase [1], the EC50, lay at 50 nM. On Transketolase [2], binding was characterised by a dissociation constant (Kd) of 28 nM.

`Cc1c(CCO)sc[n+]1Cc1ccc(C(F)(F)F)nc1N` registered an EC50 at Transketolase [1] of 160 nM. The same compound yielded a Kd at Transketolase [2] of 104 nM.

With `CC(=O)Nc1ccc(C[n+]2csc(CCO)c2C)c(N)n1`, the response on Transketolase [1] was half-maximal at 800 nM (EC50). Besides, the affinity on Transketolase [2], expressed as Kd, was 23 nM.

`Cc1c(CCO)sc[n+]1Cc1cnccc1N` came in with an EC50 at Transketolase [1] of 24000 nM. Also, the Kd on Transketolase [2] came out at 64 nM.

For `Cc1c(CCO)sc[n+]1Cc1cc(I)cnc1N`, at Transketolase [1], a half-maximal response (EC50) required 1000 nM. The Kd at Transketolase [2] is 109 nM.

Take `Cc1cc(C)c(C[n+]2csc(CCO)c2C)c(N)n1`: a half-maximal effect at Transketolase [1] (EC50) was put at 8.3 nM. The same compound yielded a Kd on Transketolase [2] of 34 nM.

`CC(=O)OCCc1sc[n+](Cc2ccc(C)nc2N)c1C` gave an EC50 on Transketolase [1] of 4.7 nM.

Compound `Cc1c(CCO)sc[n+]1Cc1ccc(N)nc1` had an EC50 on Transketolase [1] of 1600 nM. In addition, the affinity on Transketolase [2], expressed as Kd, was 7 nM.

In the case of `Cc1ccc(C[n+]2csc([C@@H](O)CO)c2C)c(N)n1`, the midpoint of the response on Transketolase [1], the EC50, lay at 2000 nM. The compound also showed an equilibrium dissociation constant (Kd) at Transketolase [2] of 27 nM.

In the case of `Cc1c(CCO)sc[n+]1Cc1ccc(C#N)nc1N`, the EC50 on Transketolase [1] is 360 nM. Besides, the Kd on Transketolase [2] stood at 57 nM.

For the compound `Cc1c(CCO)sc[n+]1Cc1cccnc1N`, on Transketolase [2], the Kd was 36 nM.

Regarding `Cc1ccc(C[n+]2cc(CCO)sc2C)c(N)n1`, the midpoint of the response on Transketolase [1], the EC50, lay at 490 nM. The compound further had a Kd on Transketolase [2] of 36 nM.

On to `Cc1ccc(C[n+]2c(C(C)O)sc(CCO)c2C)c(N)n1` (configuration not stated), for which, at Transketolase [1], the EC50 was found to be 30 nM. At Transketolase [2], this compound registered a Kd of 120 nM.

Regarding `CCc1c(CCO)sc[n+]1Cc1ccc(C)nc1N`, the EC50 on Transketolase [1] was 950 nM. The same compound came in with a Kd at Transketolase [2] of 40 nM.

At Transketolase [1], `Cc1ccc(C[n+]2csc(CCC#N)c2C)c(N)n1` had an EC50 of 2200 nM.

`Cc1ccc(C[n+]2c(C)sc(CCO)c2C)c(N)n1` yielded an EC50 on Transketolase [1] of 56 nM. This compound also returned a Kd at Transketolase [2] of 25 nM.

Consider `Cc1c(CCO)sc[n+]1Cc1ccc(Cl)nc1N`, for which, at Transketolase [2], binding was put at a Kd of 46 nM.

`Cc1c(CCO)sc[n+]1Cc1ccc(C(F)(F)F)nc1` had an EC50 on Transketolase [1] of 470 nM. For the same compound, on Transketolase [2], the Kd turned out to be 310 nM.

`Cc1ccc(C[n+]2csc(CCOP(=O)(O)OP(=O)(O)O)c2C)c(N)n1`: the Kd on Transketolase [3] amounted to 22 nM.

In turn, `Cc1ccc(C[n+]2csc(CCCO)c2C)c(N)n1` returned a concentration giving a half-maximal response (EC50) on Transketolase [1] of 1300 nM.

For the compound `Cc1ccc(C[n+]2csc(CCO)c2C)c(N)n1`, the result in the test with Mus musculus [4] and with Mus musculus [6] was Active. Besides, the outcome with Mus musculus [5] and in the test on HCT-116 was inactive. For the same compound, at Transketolase [1], the EC50 was determined as 26 nM. The same compound displayed an equilibrium dissociation constant (Kd) on Transketolase [2] of 33 nM.

Broadly, the EC50 is the concentration that produces a half-maximal response. As usually defined, the Kd is the constant that tells how readily two partners part at equilibrium. High values mean a looser complex, low ones a tighter complex.
